Measured values reported in patent US7972793B2, “Methods and compositions for the treatment of psychotic disorders through the identification of the SULT4A1-1 haplotype” (Suregene, LLC, priority 2009, dated 2011).
Like-named read-outs stand apart in the source and are kept apart here.

Tests used:
[1] = tested on: CATIE patients with schizophrenia of European ancestry; experiment: CATIE Phase I percent change of PANSS from baseline (LOCF), linear model with haplotype and drug therapy; format: in vivo, human; conditions: Table 18
Text: Genotype and phenotype data for the CATIE trial were recently made available to qualified researchers through The NIMH Center for Collaborative Genetic Studies on Mental Disorders. The inventors evaluated data for 417 CATIE patients with schizophrenia self reported as having exclusively European ancestry. This same patient population was described in a recent study by Sullivan and coworkers, which confirmed that there is no hidden stratification in the sample (Sullivan et al., 2008).
The CATIE clinical data set included baseline PANSS scores based on clinical assessments prior to initiation of the assigned therapy, but following the washout period for any patients previously on antipsychotic medication. Follow up PANSS data for the CATIE trial were collected at each visit as described in detail by others (Stroup et al., 2003). Briefly, the first visit was after one month of treatment, and subsequent visits were at somewhat irregular intervals of approximately three months for up to a total 18 months or until discontinuation of treatment, whichever came first.
For all subsequent analyses, the inventors focused on the single haplotype, designated SULT4A1-1. EM algorithm haplotypes were assigned to each patient using HelixTree software (Version 6.4.1; Golden Helix, Bozeman, Mont.), and each individual was scored as being positive or negative for the presence of the haplotype. The inventors assigned SULT4A1-1 haplotype status to those individuals for which EM algorithm assignment could be made with error probabilities of <1%. This included a total of 395 patients from the CATIE study. With the exception of four of the 395 patients in the CATIE study, SULT4A1-1 haplotype status could be assigned with error probabilities of <1×10-5.
Since follow-up on subjects was not done at uniform time intervals, analysis was done using the last observation for each patient in treatment Phase I of the trial as the measure of response (last observation carried forward, LOCF). Main effect and interaction terms between the SULT4A1-1 haplotype and drug therapy were included in the linear model. A pre-determined set of contrasts for differences in percent change PANSS by haplotype within each drug therapy (three comparisons) and by drug therapy within each haplotype (six comparisons) were evaluated, with adjustment for multiple-comparisons using the step-up false-discovery rate (FDR) controlling procedure (Benjamini and Hochberg, 1995). A sub-analysis omitting those patients who were randomized to the same antipsychotic drug therapy was also conducted. […]

[2] = tested on: CATIE Phase I non-responders; conditions: CATIE Phase II, LOCF; for Responders (number): decrease PANSS ≧ 20%

SMILES: OCCOCCN1CCN(C2=Nc3ccccc3Sc3ccccc32)CC1 [Quetiapine]
- Difference in percent change in PANSS score ([1]; Complete Sample, SULT4A1-1+ patients, labelled drug vs Risperidone): −1.0%
- Difference in percent change in PANSS score ([1]; Complete Sample, same drug, SULT4A1-1+ vs SULT4A1-1−): −5.4%
- Difference in percent change in PANSS score ([1]; Patients Randomized to a Different Medication, SULT4A1-1+ patients, labelled drug vs Risperidone): −4.6%
- Difference in percent change in PANSS score ([1]; Patients Randomized to a Different Medication, same drug, SULT4A1-1+ vs SULT4A1-1−): −6.8%
- Nonresponders (number) ([2]; SULT4A1-1 Negative): 10
- Responders (number) ([2]; SULT4A1-1 Negative): 1
- Nonresponders (number) ([2]; SULT4A1-1 Positive): 1
- Responders (number) ([2]; SULT4A1-1 Positive): 0
